Data from US20230085307A1, “PYRIDAZINONE COMPOUND AND HERBICIDE” (NISSAN CHEMICAL CORPORATION, priority 2019, published 2023).

What was measured:
late watergrass = assay: Test Example 1: herbicidal activity, application before weed generation under submerged conditions (Table 16, symbol A); format: in vivo, late watergrass (Echinochloa oryzicola); settings: 320 g/ha applied herbicide
Outline: (§1)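 Emulsion formulation, water-diluted to set dose, was put onto the flooded surface (4 cm depth, alluvial soil) the same day weeds were sown and 2.5-leaf rice transplanted. After 3 weeks at 25-30 °C under glass, each species was rated 0 (≤5% kill) to 5 (≥90% kill).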

Japanese bulrush = assay: Test Example 1: herbicidal activity, application before weed generation under submerged conditions (Table 16, symbol B); format: in vivo, Japanese bulrush (Schoenoplectus juncoides); settings: 320 g/ha applied herbicide
Outline: as §1

oval-leafed pondweed = assay: Test Example 1: herbicidal activity, application before weed generation under submerged conditions (Table 16, symbol C); format: in vivo, oval-leafed pondweed (Monochoria vaginalis); settings: 320 g/ha applied herbicide
Outline: as §1

barnyard grass [1] = assay: Test Example 3: herbicidal effect by foliage application, Wagner pot (Table 18, symbol H); format: in vivo, barnyard grass (Echinochloa crus-galli); settings: 320 g/ha
Outline: (§2)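 Plants were sown in alluvial soil held under 0.1–0.5 cm standing water and grown 14 days in a greenhouse at 25–30 °C. An emulsifiable formulation, water-diluted to the set dose, was then sprayed onto the foliage, and effects were scored three weeks later using previously defined criteria.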

Chinese sprangletop = assay: Test Example 3: herbicidal effect by foliage application, Wagner pot (Table 18, symbol D); format: in vivo, chinese sprangletop (Leptochloa chinensis); settings: 320 g/ha
Outline: as §2

rice flat sedge = assay: Test Example 3: herbicidal effect by foliage application, Wagner pot (Table 18, symbol E); format: in vivo, rice flat sedge (Cyperus iria); settings: 320 g/ha
Outline: as §2

southern crabgrass [2] = assay: Test Example 4: herbicidal effect by soil treatment (Table 19, symbol F); format: in vivo, southern crabgrass (Digitaria ciliaris); settings: amount of applied herbicide 320 g/ha
Outline: (§3)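 Seeds were sown in sterilized diluvial soil and covered with about 1.5 cm of soil. An emulsion formulation diluted with water to a predetermined herbicide amount was sprayed evenly onto the soil surface. Plants grew in a greenhouse at 25° C. to 30° C., and the effect was scored three weeks after application using criteria from an earlier test.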

green foxtail [3] = assay: Test Example 4: herbicidal effect by soil treatment (Table 19, symbol G); format: in vivo, green foxtail (Setaria viridis); settings: amount of applied herbicide 320 g/ha
Outline: as §3

barnyard grass [4] = assay: Test Example 4: herbicidal effect by soil treatment (Table 19, symbol H); format: in vivo, barnyard grass (Echinochloa crus-galli); settings: amount of applied herbicide 320 g/ha
Outline: as §3

wild oat [5] = assay: Test Example 4: herbicidal effect by soil treatment (Table 19, symbol I); format: in vivo, wild oat (Avena fatua); settings: amount of applied herbicide 320 g/ha
Outline: as §3

blackgrass [6] = assay: Test Example 4: herbicidal effect by soil treatment (Table 19, symbol J); format: in vivo, blackgrass (Alopecurus myosuroides); settings: amount of applied herbicide 320 g/ha
Outline: as §3

Italian ryegrass [7] = assay: Test Example 4: herbicidal effect by soil treatment (Table 19, symbol K); format: in vivo, Italian ryegrass (Lolium multiflorum); settings: amount of applied herbicide 320 g/ha
Outline: as §3

windgrass [8] = assay: Test Example 4: herbicidal effect by soil treatment (Table 19, symbol L); format: in vivo, windgrass (Apera spica-venti); settings: amount of applied herbicide 320 g/ha
Outline: as §3

velvetleaf [9] = assay: Test Example 4: herbicidal effect by soil treatment (Table 19, symbol M); format: in vivo, velvetleaf (Abutilon theophrasti); settings: amount of applied herbicide 320 g/ha
Outline: as §3

redroot pigweed [10] = assay: Test Example 4: herbicidal effect by soil treatment (Table 19, symbol N); format: in vivo, redroot pigweed (Amaranthus retroflexus); settings: amount of applied herbicide 320 g/ha
Outline: as §3

lambsquarters [11] = assay: Test Example 4: herbicidal effect by soil treatment (Table 19, symbol O); format: in vivo, lambsquarters (Chenopodium album); settings: amount of applied herbicide 320 g/ha
Outline: as §3

chickweed [12] = assay: Test Example 4: herbicidal effect by soil treatment (Table 19, symbol P); format: in vivo, common chickweed (Stellaria media); settings: amount of applied herbicide 320 g/ha
Outline: as §3

false cleavers [13] = assay: Test Example 4: herbicidal effect by soil treatment (Table 19, symbol Q); format: in vivo, false cleavers (Galium spurium); settings: amount of applied herbicide 320 g/ha
Outline: as §3

persian speedwell [14] = assay: Test Example 4: herbicidal effect by soil treatment (Table 19, symbol R); format: in vivo, Persian speedwell (Veronica persica); settings: amount of applied herbicide 320 g/ha
Outline: as §3

southern crabgrass [15] = assay: Test Example 5: herbicidal effect by foliage application, plastic box (Table 20, symbol F); format: in vivo, southern crabgrass (Digitaria ciliaris); settings: foliage application, 320 g/ha, three weeks after application
Outline: (§4)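 Plants sown in sterilized diluvial soil and grown 14 days in a greenhouse at 25° C to 30° C, then sprayed on the foliage with the compound's emulsion diluted in water to a predetermined herbicide amount. Injury to weeds and crops scored three weeks after application on a visual rating scale.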

green foxtail [16] = assay: Test Example 5: herbicidal effect by foliage application, plastic box (Table 20, symbol G); format: in vivo, green foxtail (Setaria viridis); settings: foliage application, 320 g/ha, three weeks after application
Outline: as §4

barnyard grass [17] = assay: Test Example 5: herbicidal effect by foliage application, plastic box (Table 20, symbol H); format: in vivo, barnyard grass (Echinochloa crus-galli); settings: foliage application, 320 g/ha, three weeks after application
Outline: as §4

wild oat [18] = assay: Test Example 5: herbicidal effect by foliage application, plastic box (Table 20, symbol I); format: in vivo, wild oat (Avena fatua); settings: foliage application, 320 g/ha, three weeks after application
Outline: as §4

blackgrass [19] = assay: Test Example 5: herbicidal effect by foliage application, plastic box (Table 20, symbol J); format: in vivo, blackgrass (Alopecurus myosuroides); settings: foliage application, 320 g/ha, three weeks after application
Outline: as §4

Italian ryegrass [20] = assay: Test Example 5: herbicidal effect by foliage application, plastic box (Table 20, symbol K); format: in vivo, Italian ryegrass (Lolium multiflorum); settings: foliage application, 320 g/ha, three weeks after application
Outline: as §4

windgrass [21] = assay: Test Example 5: herbicidal effect by foliage application, plastic box (Table 20, symbol L); format: in vivo, windgrass (Apera spica-venti); settings: foliage application, 320 g/ha, three weeks after application
Outline: as §4

velvetleaf [22] = assay: Test Example 5: herbicidal effect by foliage application, plastic box (Table 20, symbol M); format: in vivo, velvetleaf (Abutilon theophrasti); settings: foliage application, 320 g/ha, three weeks after application
Outline: as §4

redroot pigweed [23] = assay: Test Example 5: herbicidal effect by foliage application, plastic box (Table 20, symbol N); format: in vivo, redroot pigweed (Amaranthus retroflexus); settings: foliage application, 320 g/ha, three weeks after application
Outline: as §4

lambsquarters [24] = assay: Test Example 5: herbicidal effect by foliage application, plastic box (Table 20, symbol O); format: in vivo, lambsquarters (Chenopodium album); settings: foliage application, 320 g/ha, three weeks after application
Outline: as §4

chickweed [25] = assay: Test Example 5: herbicidal effect by foliage application, plastic box (Table 20, symbol P); format: in vivo, common chickweed (Stellaria media); settings: foliage application, 320 g/ha, three weeks after application
Outline: as §4

false cleavers [26] = assay: Test Example 5: herbicidal effect by foliage application, plastic box (Table 20, symbol Q); format: in vivo, false cleavers (Galium spurium); settings: foliage application, 320 g/ha, three weeks after application
Outline: as §4

persian speedwell [27] = assay: Test Example 5: herbicidal effect by foliage application, plastic box (Table 20, symbol R); format: in vivo, Persian speedwell (Veronica persica); settings: foliage application, 320 g/ha, three weeks after application
Outline: as §4

CCCCc1ccc(-c2sc3ccccc3c2-c2c(O)c(C)nn(C)c2=O)cc1 [1-005]
Herbicidal effect on A: late watergrass (grade 0-5) (late watergrass): 2 (Herbicidal rate of 20% or more and less than 40%) | Herbicidal effect on B: Japanese bulrush (grade 0-5) (Japanese bulrush): 0 (Herbicidal rate of 5% or less (almost no effect)) | Herbicidal effect on C: oval-leafed pondweed (grade 0-5) (oval-leafed pondweed): 0 (Herbicidal rate of 5% or less (almost no effect)) | herbicidal effect on H (barnyard grass), rating 0-5 (barnyard grass [1]): 4 (Herbicidal rate of 70% or more and less than 90%) | herbicidal effect on D (Chinese sprangletop), rating 0-5 (Chinese sprangletop): 0 (Herbicidal rate of 5% or less (almost no effect)) | herbicidal effect on E (rice flat sedge), rating 0-5 (rice flat sedge): 5 (Herbicidal rate of 90% or more (almost completely withered)) | herbicidal effect rating, F: southern crabgrass (southern crabgrass [2]): 0 (Herbicidal rate of 5% or less (almost no effect)) | herbicidal effect rating, G: green foxtail (green foxtail [3]): 0 (Herbicidal rate of 5% or less (almost no effect)) | herbicidal effect rating, H: barnyard grass (barnyard grass [4]): 0 (Herbicidal rate of 5% or less (almost no effect)) | herbicidal effect rating, I: wild oat (wild oat [5]): 0 (Herbicidal rate of 5% or less (almost no effect)) | herbicidal effect rating, J: blackgrass (blackgrass [6]): 0 (Herbicidal rate of 5% or less (almost no effect)) | herbicidal effect rating, K: Italian ryegrass (Italian ryegrass [7]): 0 (Herbicidal rate of 5% or less (almost no effect)) | herbicidal effect rating, L: windgrass (windgrass [8]): 0 (Herbicidal rate of 5% or less (almost no effect)) | herbicidal effect rating, M: velvetleaf (velvetleaf [9]): 0 (Herbicidal rate of 5% or less (almost no effect)) | herbicidal effect rating, N: redroot pigweed (redroot pigweed [10]): 0 (Herbicidal rate of 5% or less (almost no effect)) | herbicidal effect rating, O: lambsquarters (lambsquarters [11]): 0 (Herbicidal rate of 5% or less (almost no effect)) | herbicidal effect rating, P: chickweed (chickweed [12]): 0 (Herbicidal rate of 5% or less (almost no effect)) | herbicidal effect rating, Q: false cleavers (false cleavers [13]): 0 (Herbicidal rate of 5% or less (almost no effect)) | herbicidal effect rating, R: persian speedwell (persian speedwell [14]): 4 (Herbicidal rate of 70% or more and less than 90%) | herbicidal effect grade, F: southern crabgrass (southern crabgrass [15]): 0 (Herbicidal rate of 5% or less (almost no effect)) | herbicidal effect grade, G: green foxtail (green foxtail [16]): 0 (Herbicidal rate of 5% or less (almost no effect)) | herbicidal effect grade, H: barnyard grass (barnyard grass [17]): 0 (Herbicidal rate of 5% or less (almost no effect)) | herbicidal effect grade, I: wild oat (wild oat [18]): 0 (Herbicidal rate of 5% or less (almost no effect)) | herbicidal effect grade, J: blackgrass (blackgrass [19]): 0 (Herbicidal rate of 5% or less (almost no effect)) | herbicidal effect grade, K: Italian ryegrass (Italian ryegrass [20]): 0 (Herbicidal rate of 5% or less (almost no effect)) | herbicidal effect grade, L: windgrass (windgrass [21]): 0 (Herbicidal rate of 5% or less (almost no effect)) | herbicidal effect grade, M: velvetleaf (velvetleaf [22]): 3 (Herbicidal rate of 40% or more and less than 70%) | herbicidal effect grade, N: redroot pigweed (redroot pigweed [23]): 4 (Herbicidal rate of 70% or more and less than 90%) | herbicidal effect grade, O: lambsquarters (lambsquarters [24]): 5 (Herbicidal rate of 90% or more (almost completely withered)) | herbicidal effect grade, P: chickweed (chickweed [25]): 5 (Herbicidal rate of 90% or more (almost completely withered)) | herbicidal effect grade, Q: false cleavers (false cleavers [26]): 0 (Herbicidal rate of 5% or less (almost no effect)) | herbicidal effect grade, R: persian speedwell (persian speedwell [27]): 5 (Herbicidal rate of 90% or more (almost completely withered))
